One block for each molecule: values may come before it.
Key:
[1] = molecular target: T1, AtHEX1 (Arabidopsis thaliana, UniProt Q8L7S6); assay: p-nitrophenylglycoside hydrolysis assay; assay type: biochemical
T1 sequence (Q8L7S6 25-535 limits assumed): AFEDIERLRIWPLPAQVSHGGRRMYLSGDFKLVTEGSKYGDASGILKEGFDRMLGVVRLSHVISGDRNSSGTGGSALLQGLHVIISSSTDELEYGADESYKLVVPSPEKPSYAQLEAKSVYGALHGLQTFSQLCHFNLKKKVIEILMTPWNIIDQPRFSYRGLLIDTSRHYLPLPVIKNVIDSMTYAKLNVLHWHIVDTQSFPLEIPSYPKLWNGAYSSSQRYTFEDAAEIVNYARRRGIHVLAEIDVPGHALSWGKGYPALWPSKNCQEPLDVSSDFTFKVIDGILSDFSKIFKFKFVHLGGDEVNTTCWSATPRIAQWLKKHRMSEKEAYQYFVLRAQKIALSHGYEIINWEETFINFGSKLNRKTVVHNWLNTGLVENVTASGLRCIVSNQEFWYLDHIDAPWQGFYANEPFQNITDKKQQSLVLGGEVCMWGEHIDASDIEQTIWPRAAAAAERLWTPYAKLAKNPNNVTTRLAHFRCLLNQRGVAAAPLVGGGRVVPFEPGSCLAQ

[2] = molecular target: T2, HEX-1 (Caenorhabditis elegans, UniProt Q22492); assay: p-nitrophenylglycoside hydrolysis assay, Dixon plot; assay type: biochemical
T2 sequence (Q22492 19-555 limits assumed): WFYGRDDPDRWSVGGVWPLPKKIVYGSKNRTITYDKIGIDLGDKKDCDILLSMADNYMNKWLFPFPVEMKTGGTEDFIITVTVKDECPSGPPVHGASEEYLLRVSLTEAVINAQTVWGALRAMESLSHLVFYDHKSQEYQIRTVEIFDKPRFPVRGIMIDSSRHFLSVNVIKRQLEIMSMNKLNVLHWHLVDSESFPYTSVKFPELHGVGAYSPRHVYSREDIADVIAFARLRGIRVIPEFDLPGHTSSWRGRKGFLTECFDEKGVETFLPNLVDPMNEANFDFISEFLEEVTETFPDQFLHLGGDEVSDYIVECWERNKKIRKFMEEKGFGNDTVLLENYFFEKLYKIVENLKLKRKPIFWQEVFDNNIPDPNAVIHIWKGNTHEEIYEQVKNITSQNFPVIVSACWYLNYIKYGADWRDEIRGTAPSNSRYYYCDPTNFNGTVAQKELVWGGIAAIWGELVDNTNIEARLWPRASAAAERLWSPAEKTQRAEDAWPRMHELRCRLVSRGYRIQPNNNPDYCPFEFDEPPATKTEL

[3] = molecular target: T3, HEX-3 (Caenorhabditis elegans, UniProt A7DY67); assay: GnGn-PA digestion, RP-HPLC; assay type: biochemical; conditions: read-out: % inhibition at 200 μM
T3 sequence (A7DY67 31-591 limits assumed): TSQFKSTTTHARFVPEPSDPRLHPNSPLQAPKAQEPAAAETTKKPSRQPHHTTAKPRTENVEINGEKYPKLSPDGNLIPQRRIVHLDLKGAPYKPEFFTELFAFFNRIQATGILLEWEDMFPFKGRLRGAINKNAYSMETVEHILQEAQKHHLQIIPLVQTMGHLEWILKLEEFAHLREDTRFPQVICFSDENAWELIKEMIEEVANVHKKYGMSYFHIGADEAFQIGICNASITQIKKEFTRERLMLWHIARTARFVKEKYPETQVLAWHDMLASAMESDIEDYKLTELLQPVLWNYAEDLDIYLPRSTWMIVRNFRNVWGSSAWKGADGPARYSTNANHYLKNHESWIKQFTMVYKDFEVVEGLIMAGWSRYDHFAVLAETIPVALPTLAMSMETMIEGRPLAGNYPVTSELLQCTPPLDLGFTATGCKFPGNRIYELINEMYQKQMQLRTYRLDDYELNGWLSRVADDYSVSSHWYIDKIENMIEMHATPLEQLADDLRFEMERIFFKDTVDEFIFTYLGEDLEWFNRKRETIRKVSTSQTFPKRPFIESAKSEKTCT

[4] = molecular target: T4, HEX-2 (Caenorhabditis elegans, UniProt G5EFL1); assay: GnGn-PA digestion, RP-HPLC; assay type: biochemical; conditions: read-out: % inhibition at 200 μM
T4 sequence (G5EFL1 36-596 limits assumed): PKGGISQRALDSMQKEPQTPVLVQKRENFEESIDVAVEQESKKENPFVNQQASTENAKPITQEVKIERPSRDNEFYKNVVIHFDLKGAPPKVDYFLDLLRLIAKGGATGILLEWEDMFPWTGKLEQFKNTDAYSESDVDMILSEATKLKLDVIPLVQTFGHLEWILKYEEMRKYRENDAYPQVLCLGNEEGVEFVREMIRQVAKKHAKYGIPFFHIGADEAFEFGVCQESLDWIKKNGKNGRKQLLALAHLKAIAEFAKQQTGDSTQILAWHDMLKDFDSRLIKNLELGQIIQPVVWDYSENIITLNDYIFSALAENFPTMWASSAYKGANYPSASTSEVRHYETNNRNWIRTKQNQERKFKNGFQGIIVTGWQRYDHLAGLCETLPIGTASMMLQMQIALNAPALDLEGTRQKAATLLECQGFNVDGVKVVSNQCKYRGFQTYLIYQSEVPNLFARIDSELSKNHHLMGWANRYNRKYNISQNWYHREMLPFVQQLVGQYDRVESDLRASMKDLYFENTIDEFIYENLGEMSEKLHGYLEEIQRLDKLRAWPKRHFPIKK

[5] = molecular target: T1, AtHEX1; assay: p-nitrophenylglycoside hydrolysis assay, single concentration; assay type: biochemical; conditions: read-out: % inhibition at 0.1 mM
[6] = substrate: CC(=O)N[C@H]1[C@H](Oc2ccc([N+](=O)[O-])cc2)O[C@H](CO)[C@@H](O)[C@@H]1O; assay: purified protein

- p-nitrophenylglycoside hydrolysis assay (about 50% inhibition at 0.2 mM) [1]: about 50% inhibition at 0.2
- Ki [2]: ~1000 µM
Molecule: CC(=O)N[C@H]1CN[C@H](CO)[C@@H](O)[C@@H]1O [2-acetamido-1,2-dideoxynojirimycin, 2-acetamido-1,2,5-trideoxy-1,5-imino-D-glucitol]

- inhibition at 100 µM [5]: ~90%
- Ki [2]: ~2 µM
Molecule: CC(=O)N[C@H]1/C(=N/OC(=O)Nc2ccccc2)O[C@H](CO)[C@@H](O)[C@@H]1O [PUGNAc, O-(2-acetamido-2-deoxy-D-glucopyranosylidene)amino N-phenylcarbamate]

Second part, the molecule before the results:

Molecule: CC(=O)N[C@H]1CN2CC[C@H](O)[C@@H]2[C@@H](O)[C@@H]1O
- inhibition at 200 µM [3]: ~80%
- inhibition at 200 µM [4]: ~80%

B1: HEX-1 (Caenorhabditis elegans) (protein)
chain: WFYGRDDPDRWSVGGVWPLPKKIVYGSKNRTITYDKIGIDLGDKKDCDILLSMADNYMNKWLFPFPVEMKTGGTEDFIITVTVKDECPSGPPVHGASEEYLLRVSLTEAVINAQTVWGALRAMESLSHLVFYDHKSQEYQIRTVEIFDKPRFPVRGIMIDSSRHFLSVNVIKRQLEIMSMNKLNVLHWHLVDSESFPYTSVKFPELHGVGAYSPRHVYSREDIADVIAFARLRGIRVIPEFDLPGHTSSWRGRKGFLTECFDEKGVETFLPNLVDPMNEANFDFISEFLEEVTETFPDQFLHLGGDEVSDYIVECWERNKKIRKFMEEKGFGNDTVLLENYFFEKLYKIVENLKLKRKPIFWQEVFDNNIPDPNAVIHIWKGNTHEEIYEQVKNITSQNFPVIVSACWYLNYIKYGADWRDEIRGTAPSNSRYYYCDPTNFNGTVAQKELVWGGIAAIWGELVDNTNIEARLWPRASAAAERLWSPAEKTQRAEDAWPRMHELRCRLVSRGYRIQPNNNPDYCPFEFDEPPATKTEL
- Km [6]: 1100 µM

Source: article PMC2850174 (The Journal of biological chemistry, 2007)
